Reference: ChEMBL document CHEMBL1938307, “Synthesis, pharmacological evaluation and docking studies of N-(benzo[d]thiazol-2-yl)-2-(piperazin-1-yl)acetamide analogs as COX-2 inhibitors” (Bioorg Med Chem Lett, 2012)

How the values were obtained:
Rattus norvegicus [1] = experiment: Antiinflammatory activity in Wistar rat assessed as inhibition of carrageenan-induced paw edema at 30 mg/kg after 2 hrs; assay type: functional
Rattus norvegicus [2] = experiment: Ulcerogenic effect in Wistar rat assessed as lesions in stomach area at 90 mg/kg after 6 hrs; assay type: toxicity, organism-based; parameters: dose 90 mg/kg; details: in vivo
Rattus norvegicus [3] = experiment: Ulcerogenic effect in Wistar rat assessed as gastric bleeding at 90 mg/kg after 6 hrs; assay type: toxicity, organism-based, Stomach; parameters: dose 90 mg/kg; details: in vivo

Row | Structure (SMILES) | inhibition in vivo at 30 mg/kg (Rattus norvegicus [1]) | UI (Rattus norvegicus [2]) | UI (Rattus norvegicus [3])
1 | O=C(CN1CCN(c2ccccc2)CC1)Nc1nc2ccccc2s1 | 23.9% | – | –
2 | COc1ccc2sc(NC(=O)CN3CCCNCC3)nc2c1 | 17.4% | – | –
3 | O=C(CN1CCNCC1)Nc1nc2ccccc2s1 | 41.3% | 1.24 | 1.24
4 | CCN1CCN(CC(=O)Nc2nc3cc([N+](=O)[O-])ccc3s2)CC1 | 17.4% | – | –
5 | COc1ccc2sc(NC(=O)CN3CCN(c4ccccc4)CC3)nc2c1 | 21.7% | – | –
6 | CS(=O)(=O)c1ccc(C2=C(c3ccccc3)C(=O)OC2)cc1 [ROFECOXIB] | 81% | – | –
7 | COc1ccc2cc([C@H](C)C(=O)O)ccc2c1 [NAPROXEN] | 71.7% | 2.5 | 2.5
8 | COc1ccc2sc(NC(=O)CN3CCNCC3)nc2c1 | 2.17% | – | –
9 | CCN1CCN(CC(=O)Nc2nc3cc(OC)ccc3s2)CC1 | 17.4% | – | –
10 | O=C(CN1CCNCC1)Nc1nc2cc([N+](=O)[O-])ccc2s1 | 12.3% | – | –
11 | O=C(CN1CCCNCC1)Nc1nc2cc([N+](=O)[O-])ccc2s1 | 17.4% | – | –
12 | CCN1CCN(CC(=O)Nc2nc3ccccc3s2)CC1 | 13% | – | –
13 | O=C(CN1CCCNCC1)Nc1nc2ccccc2s1 | 8.6% | – | –
14 | O=C(CN1CCN(c2ccccc2)CC1)Nc1nc2cc([N+](=O)[O-])ccc2s1 | 34.8% | 1.21 | 1.21
